Experimental data taken from patent US20100278849A1, “PROSTATIC ACID PHOSPHATASE ANTIGENS” (priority 2004, published 2010).
“Also recorded” adds a separate entry of the source.

What was measured:
HLA-A2*0201 = HLA-A2*0201 (Homo sapiens, UniProt P04439, D140Y/D185E/D98H/E176V/E277Q/G131W/G231S/I119V/I121R/I166T/I218V/L300P/L318F/N151K/N90K/P208A/P217A/Q86G/Q94H/R138H/R169H/T345S); type: cell-based
HLA-A2 = HLA-A2 (Homo sapiens, UniProt P04439, D140Y/D185E/D98H/E176V/E277Q/G131W/G231S/I119V/I121R/I166T/I218V/L300P/L318F/N151K/N90K/P208A/P217A/Q86G/Q94H/R138H/R169H/T345S); settings: earlier reports; cited from earlier work

ALDVYNGLL [PAP.299, reference compound]
binding to HLA-A2 (T2 cells) (HLA-A2*0201): no significant binding; also recorded: unable to confirm the strong HLA-A2 binding | HLA-A2 binding previously described (HLA-A2): strong HLA-A2 binding
